The nature of data set [1]: Caco-2 cell monolayers intrinsic permeation assay in the presence of efflux inhibitors. In kind it is in vitro ADME. The note with it: Caco-2, with efflux inhibitors. From the text: Caco-2 cells were obtained from American Type Culture Collection (ATCC). HEPES, penicillin, streptomycin, bovine serum albumin (BSA) were obtained from Beijing Xinjingke Biotechnology Co, Ltd. Fetal bovine serum, Hank's balanced salt solution (HBSS) and non-essential amino acids (NEAA) were purchased from Gibco. Dulbecco's Modified Eagle's Medium (DMEM) was purchased from Corning and MES from Sigma. HTS Transwell-24 permeable supports were purchased from Corning. Zosuquidar and Ko-143 were obtained from MedChemExpress and Benzbromarone from Sigma.
The Caco-2 cell culture medium consisted of DMEM with high glucose and L-glutamine supplemented with 10% FBS, 0.1 mg/mL streptomycin, 100 units of penicillin, 0.6 mg/mL kanamycin sulfate and 1×NEAA. […] culture medium was added to each Transwell insert with 800 mL added to each well of the reservoir. After incubation at 37° C. in 5% CO2 for 1 hour, the plates were ready for seeding.
The cells were cultivated in T-75 flasks at 37° C., 5% CO2, 95% relative humidity. At 80 to 90% confluence, cells were treated with trypsin/EDTA treatment until they became detached. The trypsin/EDTA was inactivated by adding excess serum containing medium. The cell suspension was centrifuged at 120 g for 10 minutes followed by resuspension of the cell pellet in seeding medium at a cell density of 7.92×10^5 cells/mL.
[…] of the resulting cell suspension was added to each well of the Transwell plate and incubated for 14 to 18 days, with medium replaced every other day. After incubation for 14 to 18 days, the cells should have reached confluence and should be tested for electrical resistance using a Millicel Epithelial Volt-Ohm measuring system (Millipore).
The cell monolayers were washed twice with pre-warmed HBSS and incubated at 37° C. for 30 minutes under gentle shaking (480 rpm).
The compound under test was presented as a 10 mM DMSO stock solution. 2 mL of the 10 mM stock was added to 8 mL DMSO to produce a 2 mM stock. 2 mL was added to 398 mL of HBSS containing 10 mM Zosuquidar, 30 mM Benzbromarone and 2 mM KO-143 to make a […] solution.
210 mL of the test compound solution was added to the apical compartment of the Transwell plate, with a 10 mL sample taken to act as the time 0 sample. The wells of the receiver (basolateral) compartment were filled with 800 mL HBSS (containing the efflux inhibitors). The plates were incubated at 37° C. with shaking at 480 rpm for 120 minutes with sampling at 45 and 120 minutes.
At each sampling time (0, 45 and 120 minutes) 10 mL was removed from the apical compartment and add to 90 mL (HBSS containing the efflux inhibitors). 100 mL was removed from each basolateral compartment. 3 volumes of cold acetonitrile containing internal standard was added to each sample and vortex mixed for 10 minutes at 100 rpm. Samples were then centrifuged at 400 rpm for 20 minutes. 50 mL of the supernatant was taken for LC/MS/MS analysis to determine compound concentration.
The apparent permeability (Papp), in units of centimetre per second, were calculated for Caco-2 drug transport using the following equation: […]
Where CR is the concentration of compound in the receiver side at the respective time point, CD is the concentration of compound in the donor side at the respective timepoint. Area is the surface area of the membrane and time is 4500 seconds (75×60 seconds).
For orientation: Caco-2 cells form a polarised layer with tight junctions and transporters.

For another data set, the system named is MOLM-13 cells. As to the kind of experiment: Proliferation assay, MOLM-13 (CellTiter-Glo, 7 days). Format: cell-based, human. Put shortly: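 Cells were seeded at line-specific low densities for linear growth, exposed to 3.16-fold serial compound dilutions at 0.1% DMSO, and incubated 7 days at 37 °C, 5% CO2. Viability was read by CellTiter-Glo 2.0 luminescence; IC50 came from one-site fits of % inhibition, normalized between DMSO-treated cells (100%) and a day-0 plate (0%).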
(In ATP-based viability assays light output follows the ATP content of the culture.)

Read-outs that look alike come from different tables or passages of the source.

For orientation: Papp A→B means how fast a substance crosses the layer from the apical side. The IC50 is the concentration that inhibits the measured activity by half. Low readings indicate greater potency, high ones weaker potency.

On to `CCN(C(=O)c1cc(F)ccc1-n1cc(C(=O)C2CCN(C(=O)[C@H]3NC[C@@H]4C[C@@H]43)CC2)c2ccncc21)C(C)C` [Example 28, 2-(3-(1-((1S,2S,5R)-3-Azabicyclo[3.1.0]hexane-2-carbonyl)piperidine-4-carbonyl)-1H-pyrrolo[2,3-c]pyridin-1-yl)-N-ethyl-5-fluoro-N-isopropylbenzamide], for which the Papp A→B in data set [1] was determined as 1.1 ×10⁻⁶ cm/s. Further, the IC50 with MOLM-13 cells (Homo sapiens, MOLM-13, 168 h) was 39 nM.
Take `CC(C)N(C(=O)c1cc(F)ccc1-n1cc(C(=O)C2CCN(C(=O)[C@@H]3CCC4(CC4)N3)CC2)c2ccncc21)C(C)C` [Example 24, (S)-2-(3-(1-(4-Azaspiro[2.4]heptane-5-carbonyl)piperidine-4-carbonyl)-1H-pyrrolo[2,3-c]pyridin-1-yl)-5-fluoro-N,N-diisopropylbenzamide]: in data set [1], the apparent permeability from apical to basolateral (Papp A→B) is 18.2 ×10⁻⁶ cm/s. Moreover, in the data set with MOLM-13 cells (Homo sapiens, MOLM-13, 168 h), the IC50 came out at 32 nM.
For the compound `CC(C)N(C(=O)c1cc(F)ccc1-n1cc(C(=O)C2CCN(C(=O)[C@H]3N[C@@H]4CC[C@H]3C4)CC2)c2ccncc21)C(C)C` [Example 16, 2-(3-(1-((1R,3S,4S)-2-Azabicyclo[2.2.1]heptane-3-carbonyl)piperidine-4-carbonyl)-1H-pyrrolo[2,3-c]pyridin-1-yl)-5-fluoro-N,N-diisopropylbenzamide], the Papp A→B in data set [1] stood at 0.6 ×10⁻⁶ cm/s. This compound also came in with an IC50 in the data set on MOLM-13 cells (Homo sapiens, MOLM-13, 168 h) of 35 nM.
For `CC(C)N(C(=O)c1cc(F)ccc1-n1cc(C(=O)C2CCN(C(=O)[C@H]3NC[C@@H]4C[C@@H]43)CC2)c2ccncc21)C(C)C` [Example 19, 2-(3-(1-((1S,2S,5R)-3-Azabicyclo[3.1.0]hexane-2-carbonyl)piperidine-4-carbonyl)-1H-pyrrolo[2,3-c]pyridin-1-yl)-5-fluoro-N,N-diisopropylbenzamide] the same measures were 2.6 ×10⁻⁶ cm/s and 34 nM.
For `CC(C)(F)c1ncccc1-c1cc(F)ccc1-n1cc(C(=O)C2CN(C(=O)[C@H]3N[C@@H]4CC[C@H]3C4)C2)c2ccncc21` [Example 13, (1-((1R,3S,4S)-2-Azabicyclo[2.2.1]heptane-3-carbonyl)azetidin-3-yl)(1-(4-fluoro-2-(2-(2-fluoropropan-2-yl)pyridin-3-yl)phenyl)-1H-pyrrolo[2,3-c]pyridin-3-yl)methanone] the same measures were 1.7 ×10⁻⁶ cm/s and 51 nM.
For `CCN(C(=O)c1cc(F)ccc1-n1cc(C(=O)C2CN(C(=O)[C@H]3NC4CCC3CC4)C2)c2ccncc21)C(C)C` [Example 9, (S)-2-(3-(1-(2-Azabicyclo[2.2.2]octane-3-carbonyl)azetidine-3-carbonyl)-1H-pyrrolo[2,3-c]pyridin-1-yl)-N-ethyl-5-fluoro-N-isopropylbenzamide], in data set [1], the apparent permeability from apical to basolateral (Papp A→B) was found to be 0.5 ×10⁻⁶ cm/s. This compound gave a concentration for half-maximal inhibition (IC50) in the data set with MOLM-13 cells (Homo sapiens, MOLM-13, 168 h) of 121 nM.
With `O=C(c1cn(-c2ccc(F)cc2-c2cncnc2C2CC2)c2cnccc12)C1CCN(C(=O)[C@H]2N[C@@H]3CC[C@H]2C3)CC1` [Example 40, (1-((1R,3S,4S)-2-Azabicyclo[2.2.1]heptane-3-carbonyl)piperidin-4-yl)(1-(2-(4-cyclopropylpyrimidin-5-yl)-4-fluorophenyl)-1H-pyrrolo[2,3-c]pyridin-3-yl)methanone], the apical-to-basolateral permeability (Papp A→B) in data set [1] amounted to 0.3 ×10⁻⁶ cm/s. This compound showed a concentration for half-maximal inhibition (IC50) in the data set with MOLM-13 cells (Homo sapiens, MOLM-13, 168 h) of 61 nM.
`Cc1c(C(=O)C2CCN(C(=O)[C@H]3NC[C@@H]4C[C@@H]43)CC2)c2ccncc2n1-c1ccc(F)cc1C(=O)N(CC(F)(F)F)C(C)C` (single isomer, unassigned) [Example 51-2] displayed a half-inhibitory concentration (IC50) in the data set on MOLM-13 cells of 31 nM.
`CC(C)n1nccc1-c1cc(F)ccc1-n1cc(C(=O)C2CCN(C(=O)[C@H]3N[C@@H]4CC[C@H]3C4)CC2)c2ccncc21` [Example 36, (1-((1R,3S,4S)-2-Azabicyclo[2.2.1]heptane-3-carbonyl)piperidin-4-yl)(1-(4-fluoro-2-(1-isopropyl-1H-pyrazol-5-yl)phenyl)-1H-pyrrolo[2,3-c]pyridin-3-yl)methanone]: the Papp A→B in data set [1] is 0.6 ×10⁻⁶ cm/s. For the same compound, 60 nM corresponded to half-maximal inhibition with MOLM-13 cells (Homo sapiens, MOLM-13, 168 h) (IC50).
Taken in the same sequence, the figures for `C=C1C[C@@H]2CC[C@H]1[C@@H](C(=O)N1CCC(C(=O)c3cn(-c4ccc(F)cc4C(=O)N(C(C)C)C(C)C)c4cnccc34)CC1)N2` [Example 18, 5-Fluoro-N,N-diisopropyl-2-(3-(1-((1S,3S,4R)-5-methylene-2-azabicyclo[2.2.2]-octane-3-carbonyl)piperidine-4-carbonyl)-1H-pyrrolo[2,3-c]pyridin-1-yl)benzamide] were 3.1 ×10⁻⁶ cm/s and 57 nM.
Take `Cc1c(C(=O)C2CCN(C(=O)[C@H]3NC[C@@H]4C[C@@H]43)CC2)c2ccncc2n1-c1ccc(F)cc1C(=O)N(C(C)C)[C@H](C)C(F)(F)F` (single isomer, unassigned) [Example 57-1]: the half-maximal inhibitory concentration (IC50) in the data set with MOLM-13 cells is 93 nM.
For `CC(C)N(C(=O)c1cc(F)ccc1-n1cc(C(=O)C2CCN(C(=O)[C@H]3NC[C@@H]4CCC[C@@H]43)CC2)c2ccncc21)C(C)C` [Example 21, 5-Fluoro-N,N-diisopropyl-2-(3-(1-((1S,3αR,6αS)-octahydrocyclopenta[c]pyrrole-1-carbonyl)piperidine-4-carbonyl)-1H-pyrrolo[2,3-c]pyridin-1-yl)benzamide], the apical-to-basolateral permeability (Papp A→B) in data set [1] was found to be 1.7 ×10⁻⁶ cm/s. The compound further displayed a half-maximal inhibitory concentration (IC50) in the data set with MOLM-13 cells (Homo sapiens, MOLM-13, 168 h) of 34 nM.
`CCN(C(=O)c1cc(F)ccc1-n1c(C)c(C(=O)[C@@H]2CCN(C(=O)[C@@H]3CCC4(CC4)N3)[C@@H](C)C2)c2ccncc21)C(C)C` (single isomer, unassigned) [Example 52-2, N-Ethyl-5-fluoro-N-isopropyl-2-(2-methyl-3-((2R*,4S*)-2-methyl-1-((S)-4-azaspiro[2.4]heptane-5-carbonyl)piperidine-4-carbonyl)-1H-pyrrolo[2,3-c]pyridin-1-yl)benzamide]: in the data set on MOLM-13 cells, half-maximal inhibition (IC50) required 48 nM.
Same read-out and setting: with `CCN(C(=O)c1cc(F)ccc1-n1c(C)c(C(=O)C2CCN(C(=O)[C@H]3NC[C@@H]4C[C@@H]43)CC2)c2ccncc21)C(C)C` (single isomer, unassigned) [Example 48-1] the figure was 1250 nM; with `Cc1c(C(=O)C2CCN(C(=O)[C@@H]3CCC(C)(C)N3)CC2)c2ccncc2n1-c1ccc(F)cc1C(=O)N(C(C)C)C(C)C` (single isomer, unassigned) [Compound 56-2], 40 nM; with `Cc1c(C(=O)C2CCN(C(=O)[C@H]3NC[C@@H]4C[C@@H]43)CC2)c2ccncc2n1-c1ccc(F)cc1C(=O)N(C(C)C)C(C)C` (single isomer, unassigned) [Example 55-2], 25 nM.
As for `CCN(C(=O)c1cc(F)ccc1-n1c(C)c(C(=O)[C@@H]2CCN(C(=O)[C@@H]3CCC4(CC4)N3)[C@@H](C)C2)c2ccncc21)C(C)C` (single isomer, unassigned) [Example 52-1, N-Ethyl-5-fluoro-N-isopropyl-2-(2-methyl-3-((2R*,4S*)-2-methyl-1-((S)-4-azaspiro[2.4]heptane-5-carbonyl)piperidine-4-carbonyl)-1H-pyrrolo[2,3-c]pyridin-1-yl)benzamide], the Papp A→B in data set [1] is 10.9 ×10⁻⁶ cm/s.
`CCN(C(=O)c1cc(F)ccc1-n1c(C)c(C(=O)C2CCN(C(=O)[C@H]3NC[C@@H]4C[C@@H]43)CC2)c2ccncc21)C(C)C` (single isomer, unassigned) [Example 48-2] registered a 50% inhibitory concentration (IC50) with MOLM-13 cells of 27 nM.
